# Data: PMC7827406, “Structure–Activity Relationship (SAR) Study of Spautin-1 to Entail the Discovery of Novel NEK4 Inhibitors” (International Journal of Molecular Sciences, 2021)
# Read-outs that look alike come from different tables or passages of the source.
# Experiments:
# Assay in all cases: biochemical
# Set-up in all cases: Eurofins KinaseProfiler full panel at Km ATP, residual kinase activity (%) relative to DMSO
# MKK4(m) = target: T1, MKK4(m) (Mus musculus, UniProt P47809)
# T1 construct: gene Map2k4
# T1 sequence (P47809 1-397): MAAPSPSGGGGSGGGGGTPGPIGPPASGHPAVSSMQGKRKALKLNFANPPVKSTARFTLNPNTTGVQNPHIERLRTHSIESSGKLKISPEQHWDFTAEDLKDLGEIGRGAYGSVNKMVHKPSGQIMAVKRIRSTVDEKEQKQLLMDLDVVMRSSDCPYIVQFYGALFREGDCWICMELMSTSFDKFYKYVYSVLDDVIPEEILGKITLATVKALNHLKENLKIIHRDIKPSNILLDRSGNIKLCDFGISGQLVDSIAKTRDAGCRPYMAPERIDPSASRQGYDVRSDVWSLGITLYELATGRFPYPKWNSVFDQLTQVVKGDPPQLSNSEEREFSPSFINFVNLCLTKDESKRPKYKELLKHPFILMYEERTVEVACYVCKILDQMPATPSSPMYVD
# Outline: (§1)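 Compounds screened at 10 µM in radiometric kinase activity assays at Km ATP, reported as remaining kinase activity (%). A KINOMEscan competition-binding screen at 10 µM measured DNA-tagged kinase retained on immobilized active-site ligand by qPCR.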
# Cdc7/cyclinB1(h) = Cdc7/cyclinB1(h) (Homo sapiens, UniProt O00311)
# Outline: as §1
# MRCKβ(h) = target: T2, MRCKβ(h) (Homo sapiens, UniProt Q9Y5S2)
# T2 construct: gene CDC42BPB
# Outline: as §1
# GRK3(h) = target: T3, GRK3(h) (Homo sapiens, UniProt P35626)
# T3 sequence (P35626 1-688): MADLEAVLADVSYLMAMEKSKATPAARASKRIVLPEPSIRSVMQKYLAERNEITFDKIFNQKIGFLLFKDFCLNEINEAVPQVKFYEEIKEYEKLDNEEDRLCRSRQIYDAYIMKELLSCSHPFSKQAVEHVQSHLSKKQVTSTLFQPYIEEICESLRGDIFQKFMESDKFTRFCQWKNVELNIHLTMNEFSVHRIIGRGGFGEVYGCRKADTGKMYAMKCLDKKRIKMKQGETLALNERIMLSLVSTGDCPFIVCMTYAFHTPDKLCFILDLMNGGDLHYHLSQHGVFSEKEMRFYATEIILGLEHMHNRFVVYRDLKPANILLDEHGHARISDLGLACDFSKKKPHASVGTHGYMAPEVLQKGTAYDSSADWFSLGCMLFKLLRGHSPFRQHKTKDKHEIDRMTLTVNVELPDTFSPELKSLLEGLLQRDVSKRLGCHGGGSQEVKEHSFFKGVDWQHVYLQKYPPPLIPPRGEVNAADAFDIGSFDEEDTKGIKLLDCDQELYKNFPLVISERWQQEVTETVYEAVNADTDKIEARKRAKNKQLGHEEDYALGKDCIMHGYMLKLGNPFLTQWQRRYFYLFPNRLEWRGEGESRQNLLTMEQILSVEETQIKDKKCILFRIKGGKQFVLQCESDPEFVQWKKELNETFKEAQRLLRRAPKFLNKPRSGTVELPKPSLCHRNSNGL
# Outline: as §1
# PKBβ(h) = target: T4, PKBβ(h) (Homo sapiens, UniProt P31751)
# T4 construct: gene AKT2
# Outline: as §1
# Snk(h) = target: T5, Snk(h) (Homo sapiens, UniProt Q9NYY3)
# T5 construct: gene PLK2
# Outline: as §1
# GRK2(h) = target: T6, GRK2(h) (Homo sapiens, UniProt P25098)
# T6 sequence (P25098 1-689): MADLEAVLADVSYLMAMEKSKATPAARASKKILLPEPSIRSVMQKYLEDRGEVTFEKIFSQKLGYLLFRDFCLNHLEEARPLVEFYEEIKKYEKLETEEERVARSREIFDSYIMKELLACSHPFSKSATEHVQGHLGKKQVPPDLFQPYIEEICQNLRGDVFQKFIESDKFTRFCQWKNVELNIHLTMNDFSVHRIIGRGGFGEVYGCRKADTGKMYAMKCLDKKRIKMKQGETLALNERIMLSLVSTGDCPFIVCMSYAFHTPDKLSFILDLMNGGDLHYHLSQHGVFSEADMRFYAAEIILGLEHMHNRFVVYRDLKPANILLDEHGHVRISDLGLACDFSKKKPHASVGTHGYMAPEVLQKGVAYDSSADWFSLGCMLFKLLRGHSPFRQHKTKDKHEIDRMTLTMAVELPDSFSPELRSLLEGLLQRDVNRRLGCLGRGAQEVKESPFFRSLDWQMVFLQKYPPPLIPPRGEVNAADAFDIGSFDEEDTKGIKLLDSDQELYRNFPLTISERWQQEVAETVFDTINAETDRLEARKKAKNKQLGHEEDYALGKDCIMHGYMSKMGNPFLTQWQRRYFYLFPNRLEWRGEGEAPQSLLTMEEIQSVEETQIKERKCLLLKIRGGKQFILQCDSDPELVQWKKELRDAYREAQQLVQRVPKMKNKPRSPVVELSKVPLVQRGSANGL
# Outline: as §1
# [1] = read-out: Residual activity (%) Spautin-1 5aa
# [2] = read-out: Residual activity (%) 5as
# [3] = read-out: Residual activity (%) 5at
# [4] = read-out: Residual activity (%) 5ay
# T4 sequence (P31751 whole entry): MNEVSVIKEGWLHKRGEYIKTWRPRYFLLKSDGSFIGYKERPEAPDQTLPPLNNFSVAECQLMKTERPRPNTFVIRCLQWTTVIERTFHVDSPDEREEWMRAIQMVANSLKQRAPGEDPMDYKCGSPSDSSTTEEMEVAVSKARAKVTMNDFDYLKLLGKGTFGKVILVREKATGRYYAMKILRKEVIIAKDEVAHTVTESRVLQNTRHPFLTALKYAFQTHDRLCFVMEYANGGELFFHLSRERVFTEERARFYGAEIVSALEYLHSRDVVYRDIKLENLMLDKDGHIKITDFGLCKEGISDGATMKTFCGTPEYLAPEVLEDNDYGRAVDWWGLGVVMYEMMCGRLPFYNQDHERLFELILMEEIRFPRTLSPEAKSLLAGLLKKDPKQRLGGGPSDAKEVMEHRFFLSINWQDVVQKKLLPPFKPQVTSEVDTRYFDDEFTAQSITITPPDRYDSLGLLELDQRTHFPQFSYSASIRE
# T2 sequence (Q9Y5S2 whole entry): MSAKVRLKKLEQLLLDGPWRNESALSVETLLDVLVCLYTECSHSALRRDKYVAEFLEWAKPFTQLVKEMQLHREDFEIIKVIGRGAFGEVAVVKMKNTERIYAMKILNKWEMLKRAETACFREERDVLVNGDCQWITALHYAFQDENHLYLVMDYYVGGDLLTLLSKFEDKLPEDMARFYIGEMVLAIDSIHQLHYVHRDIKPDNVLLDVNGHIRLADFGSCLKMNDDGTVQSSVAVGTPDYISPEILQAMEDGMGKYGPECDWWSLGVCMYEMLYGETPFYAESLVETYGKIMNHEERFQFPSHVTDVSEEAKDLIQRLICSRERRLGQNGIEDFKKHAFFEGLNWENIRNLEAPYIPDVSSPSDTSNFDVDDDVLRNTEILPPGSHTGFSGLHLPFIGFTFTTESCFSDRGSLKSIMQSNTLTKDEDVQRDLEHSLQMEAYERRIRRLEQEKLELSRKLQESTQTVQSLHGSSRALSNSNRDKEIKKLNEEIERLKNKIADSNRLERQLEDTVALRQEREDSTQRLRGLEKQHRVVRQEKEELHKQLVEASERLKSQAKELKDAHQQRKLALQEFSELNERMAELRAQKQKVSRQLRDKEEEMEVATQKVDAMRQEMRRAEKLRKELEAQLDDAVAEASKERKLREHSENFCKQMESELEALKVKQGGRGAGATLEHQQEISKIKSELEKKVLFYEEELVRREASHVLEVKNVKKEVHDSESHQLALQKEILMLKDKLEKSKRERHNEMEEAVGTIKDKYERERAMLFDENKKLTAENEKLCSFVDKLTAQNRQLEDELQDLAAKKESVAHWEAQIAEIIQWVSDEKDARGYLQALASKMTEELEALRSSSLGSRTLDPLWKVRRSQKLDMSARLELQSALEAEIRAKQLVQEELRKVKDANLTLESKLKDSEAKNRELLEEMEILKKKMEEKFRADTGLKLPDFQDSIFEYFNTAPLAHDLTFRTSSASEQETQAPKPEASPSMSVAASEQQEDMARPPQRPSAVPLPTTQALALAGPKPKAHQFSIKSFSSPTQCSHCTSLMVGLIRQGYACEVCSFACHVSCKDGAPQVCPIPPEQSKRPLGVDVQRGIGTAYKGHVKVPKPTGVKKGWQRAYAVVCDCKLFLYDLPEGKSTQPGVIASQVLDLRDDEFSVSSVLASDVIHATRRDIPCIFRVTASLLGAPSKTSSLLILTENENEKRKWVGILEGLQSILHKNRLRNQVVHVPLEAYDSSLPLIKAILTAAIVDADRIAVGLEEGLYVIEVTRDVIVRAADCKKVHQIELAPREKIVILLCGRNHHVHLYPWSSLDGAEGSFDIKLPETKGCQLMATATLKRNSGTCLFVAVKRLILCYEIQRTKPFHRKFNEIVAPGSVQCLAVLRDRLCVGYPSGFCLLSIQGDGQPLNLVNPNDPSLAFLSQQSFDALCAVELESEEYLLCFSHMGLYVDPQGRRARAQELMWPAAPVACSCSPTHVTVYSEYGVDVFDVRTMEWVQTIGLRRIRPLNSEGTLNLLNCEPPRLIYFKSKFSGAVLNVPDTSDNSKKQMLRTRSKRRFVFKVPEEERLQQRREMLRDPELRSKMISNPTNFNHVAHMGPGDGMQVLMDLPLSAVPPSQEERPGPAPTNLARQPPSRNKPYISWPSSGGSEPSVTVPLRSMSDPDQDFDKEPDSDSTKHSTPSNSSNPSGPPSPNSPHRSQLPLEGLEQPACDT
# T5 sequence (Q9NYY3 whole entry): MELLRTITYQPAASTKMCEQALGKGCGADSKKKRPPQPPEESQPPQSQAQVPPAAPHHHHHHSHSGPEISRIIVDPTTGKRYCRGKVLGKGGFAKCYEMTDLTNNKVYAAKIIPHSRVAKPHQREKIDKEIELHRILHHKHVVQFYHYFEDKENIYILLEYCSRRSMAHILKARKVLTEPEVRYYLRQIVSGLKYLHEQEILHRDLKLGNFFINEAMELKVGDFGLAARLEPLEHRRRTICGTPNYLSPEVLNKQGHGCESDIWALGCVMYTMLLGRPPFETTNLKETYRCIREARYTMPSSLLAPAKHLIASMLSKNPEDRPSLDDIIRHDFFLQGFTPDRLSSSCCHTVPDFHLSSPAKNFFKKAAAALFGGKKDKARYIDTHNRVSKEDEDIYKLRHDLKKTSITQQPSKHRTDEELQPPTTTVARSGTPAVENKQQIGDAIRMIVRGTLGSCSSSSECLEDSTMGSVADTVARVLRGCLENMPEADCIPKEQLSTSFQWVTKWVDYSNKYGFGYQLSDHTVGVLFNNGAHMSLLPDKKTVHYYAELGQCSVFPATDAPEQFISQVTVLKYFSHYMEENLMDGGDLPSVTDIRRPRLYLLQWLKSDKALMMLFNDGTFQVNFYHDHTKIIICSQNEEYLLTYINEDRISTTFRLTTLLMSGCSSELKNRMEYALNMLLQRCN
# Cdc7/cyclinB1(h), sequence (O00311 whole entry): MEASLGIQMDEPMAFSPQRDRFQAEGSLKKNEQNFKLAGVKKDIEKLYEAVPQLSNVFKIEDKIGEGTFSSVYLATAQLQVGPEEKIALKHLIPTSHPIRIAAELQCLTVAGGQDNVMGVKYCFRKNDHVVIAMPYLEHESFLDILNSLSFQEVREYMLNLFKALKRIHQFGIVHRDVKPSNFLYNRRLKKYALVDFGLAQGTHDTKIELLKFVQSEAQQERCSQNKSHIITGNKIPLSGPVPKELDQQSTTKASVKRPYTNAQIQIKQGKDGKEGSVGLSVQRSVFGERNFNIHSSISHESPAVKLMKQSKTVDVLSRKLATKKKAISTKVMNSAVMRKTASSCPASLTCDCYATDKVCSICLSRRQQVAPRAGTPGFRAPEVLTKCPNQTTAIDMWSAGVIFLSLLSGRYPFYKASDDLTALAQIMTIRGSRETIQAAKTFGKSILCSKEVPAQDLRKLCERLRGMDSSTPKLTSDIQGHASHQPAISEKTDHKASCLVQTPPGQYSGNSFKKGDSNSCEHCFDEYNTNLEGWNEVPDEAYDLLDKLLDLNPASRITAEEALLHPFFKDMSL
# Cdc7/cyclinB1(h), sequence (P14635 whole entry partner): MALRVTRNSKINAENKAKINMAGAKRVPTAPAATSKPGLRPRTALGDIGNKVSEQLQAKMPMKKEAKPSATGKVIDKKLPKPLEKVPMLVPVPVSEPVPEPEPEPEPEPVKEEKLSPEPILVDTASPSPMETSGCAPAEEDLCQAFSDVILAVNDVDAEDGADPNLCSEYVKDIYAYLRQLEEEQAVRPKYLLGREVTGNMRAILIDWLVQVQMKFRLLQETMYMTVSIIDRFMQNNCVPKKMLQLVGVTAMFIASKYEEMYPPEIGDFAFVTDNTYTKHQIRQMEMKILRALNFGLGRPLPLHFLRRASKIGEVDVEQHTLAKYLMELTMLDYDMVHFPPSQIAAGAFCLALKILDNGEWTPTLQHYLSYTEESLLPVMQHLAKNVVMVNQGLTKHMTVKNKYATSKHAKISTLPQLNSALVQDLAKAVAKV
smiles,measurement,setting,value
"Fc1ccc(CNc2ncnc3ccc(F)cc23)cc1 [5aa, 6-Fluoro-N-(4-fluorobenzyl)-4-Quinazolinamine]",remaining activity at 10 µM,MKK4(m); [1],105%
same,remaining activity at 10 µM,Cdc7/cyclinB1(h); [1],92%
same,remaining activity at 10 µM,MRCKβ(h); [1],80%
same,remaining activity at 10 µM,GRK3(h); [1],95%
same,remaining activity at 10 µM,PKBβ(h); [1],106%
same,remaining activity at 10 µM,Snk(h); [1],98%
same,remaining activity at 10 µM,GRK2(h); [1],107%
"Fc1ccc(CCNc2ncnc3ccc(F)cc23)cc1 [5as, 6-Fluoro-N-[2-(4-Fluorophenyl)Ethyl]-4-Quinazolinamine]",remaining activity at 10 µM,MKK4(m); [2],112%
same,remaining activity at 10 µM,Cdc7/cyclinB1(h); [2],79%
same,remaining activity at 10 µM,MRCKβ(h); [2],84%
same,remaining activity at 10 µM,GRK3(h); [2],92%
same,remaining activity at 10 µM,PKBβ(h); [2],84%
same,remaining activity at 10 µM,Snk(h); [2],89%
same,remaining activity at 10 µM,GRK2(h); [2],101%
"Fc1ccc2ncnc(NCCc3ccc(Cl)cc3)c2c1 [5at, N-[2-(4-Chlorophenyl)Ethyl]-6-Fluoro-4-Quinazolinamine]",remaining activity at 10 µM,MKK4(m); [3],118%
same,remaining activity at 10 µM,Cdc7/cyclinB1(h); [3],76%
same,remaining activity at 10 µM,MRCKβ(h); [3],103%
same,remaining activity at 10 µM,GRK3(h); [3],97%
same,remaining activity at 10 µM,PKBβ(h); [3],75%
same,remaining activity at 10 µM,Snk(h); [3],100%
same,remaining activity at 10 µM,GRK2(h); [3],107%
"COc1ccc2ncnc(Nc3cccc(F)c3)c2c1 [5ay, N-(3-Fluorophenyl)-6-Methoxy-4-Quinazolinamine]",remaining activity at 10 µM,MKK4(m); [4],110%
same,remaining activity at 10 µM,Cdc7/cyclinB1(h); [4],73%
same,remaining activity at 10 µM,MRCKβ(h); [4],79%
same,remaining activity at 10 µM,GRK3(h); [4],93%
same,remaining activity at 10 µM,PKBβ(h); [4],106%
same,remaining activity at 10 µM,Snk(h); [4],80%
same,remaining activity at 10 µM,GRK2(h); [4],95%
